Key:
[1] = test system: U251MG glioblastoma CDX; test: Subcutaneous U251MG glioblastoma CDX: time of tumor progression; assay type: in vivo, cd1 nu/nu mice (human GBM cell line); conditions: KcAng(1-7) 1 μg/kg/d, Losartan 20 mg/kg/d, or both
Procedure: Effects of KcAng(1-7) were evaluated in vivo in a subcutaneous GBM xenograft model in nude mice. Insurgence of neurologic phenomena and differences in the survival rates were evaluated. Human GBM cell lines U87MG and U251MG were used. Cell lines were grown in DMEM nutrient mixture supplemented with 10% fetal bovine serum, 1% penicillin/streptomycin, and 25 mM HEPES buffer. All cell lines were cultured at 37° C. in a humidified atmosphere consisting of 5% CO2 and 95% air. Medium was changed every 2 days and the cell morphology was evaluated under microscope daily. Six-week-old male athymic nude mice (age 5-7 weeks) were housed with free access to food and water in a temperature-controlled room. Each group is represented by 10 xenograft cd1 nu/nu mice. […] Xenografts were measured every four days with a digital caliper in two perpendicular dimensions. Tumor volume was calculated according to the following formula: In vivo tumor response to treatment was evaluated using the following parameters: […] […] TP, TTP and DFS were analyzed by Kaplan-Meier curves and Gehan's generalized Wilcoxon test. […]

[2] = test system: OvCa13329 ovarian cancer PDX model; test: KcAng(1-7) on growth of ovarian carcinoma PDX OvCa13329 in mice; assay type: in vivo, NMRI nu/nu mice (human PDX); conditions: for optT/C: day 11 of the treatment
Procedure: In vivo studies were conducted at EPO GmbH Berlin. Large studies (FIG. 1A, 2, 3, 4, 5) comprised 3 groups of 10 mice/group and 5 animals as reserve, as outlined in Table 1. Smaller studies (FIG. 1B, 1C, 1D) comprised 2 groups of mice of 3 mice per group. The animals were allocated to the various treatment groups (e.g. 0.2 μg/kg and 30 μg/kg) with a maximum of 10 animals per group. […] The groups received subcutaneous (s.c.) drug injection (for max. 28 days) as outlined in the Table 1.
NMRI nu/nu mice were used in this study. The animals were female at age of 6 to 8 weeks. The respective PDX tumors were inoculated subcutaneously (s.c.), and the tumors were grown to achieve palpable tumor sizes before start of the respective treatments. The PDX included breast (MaCa4151), colon (Co9689A), head & neck (HN10309), lung (Lu7433) and ovarian (OvCa13329) cancer (Table 2).
Treatment with KcAng(1-7) was started with palpable tumors after the randomization of animals regarding tumor volume. KcAng(1-7) was applied s.c. by daily injections at […] or 30 μg/kg dose for a maximum of 28 days (or earlier as defined by the humane end point for the study).
KcAng(1-7) was prepared as follows: The compounds was suspended in sterile PBS resulting in a clear solution. The remains of this formulation were stored at 4° C.
Tumor growth stimulatory or inhibitory activity of the KcAng(1-7) was evaluated by determination of tumor volumes (TV). During the study, tumor volumes and body weight were measured twice a week, and the ratio of the mean tumor volumes between the compound-treated group and the vehicle-treated group (T/C) was calculated.
Tumor volume=(tumor width)×(tumor width)×(tumor length)+2
T/C=T÷C • T: Mean estimated tumor volume of the compound-treated group • C: Mean estimated tumor volume of the vehicle-treated group

[3] = Gr. B 0.2 μg/kg/d s.c., Day 7 (Meas. 1)
[4] = Gr. B 0.2 μg/kg/d s.c., Day 11 (Meas. 2)
[5] = Gr. B 0.2 μg/kg/d s.c., Day 14 (Meas. 3)
[6] = Gr. B 0.2 μg/kg/d s.c., Day 18 (Meas. 4)
[7] = Gr. B 0.2 μg/kg/d s.c., Day 21 (Meas. 5)
[8] = Gr. C 30 μg/kg/d s.c., Day 7 (Meas. 1)
[9] = Gr. C 30 μg/kg/d s.c., Day 11 (Meas. 2)
[10] = Gr. C 30 μg/kg/d s.c., Day 14 (Meas. 3)
[11] = Gr. C 30 μg/kg/d s.c., Day 18 (Meas. 4)
[12] = Gr. C 30 μg/kg/d s.c., Day 21 (Meas. 5)

For “Lys-Asp-Arg-Val-Abu/Ala-Ile-His-Abu/Ala (KDRVAIHA; not fully specified; cyclic thioether (Abu/Ala bridge); VARIANT (5)..(5) /replace=“Abu”; VARIANT (8)..(8) /replace=“Abu”; SITE (1)..(8) /note=“Variant residues given in the sequence have no preference with respect to those in the annotations for variant positions”) [KcAng(1-7)]”, the “Time of tumor progression - TTP, mean (days ± SEM)” value [1] was 14.4 ± 0.8 days, the optT/C ([2]; 0.2 μg/kg) was 55.8% and the optT/C ([2]; 30 μg/kg) was 51%. The “effect on tumor volume” value ([2]; 0.2 and 30 μg/kg, 15 days) was “significant reduction in tumor volume”, the “RTV Mean” value [2, 3] was 1 and the “RTV Median” value [2, 3] was 1. For the same substance, the T/C [2, 3] was 102.4%, the “Tumor Vol. Mean” value [2, 3] was 0.122 cm^3 and the “Tumor Vol. Median” value [2, 3] was 0.123 cm^3. For the same substance, the “RTV Mean” value [2, 4] was 1.6, the “RTV Median” value [2, 4] was 1.5 and the T/C [2, 4] was 55.8%. The “Tumor Vol. Mean” value [2, 4] was 0.192 cm^3, the “Tumor Vol. Median” value [2, 4] was 0.181 cm^3 and the “RTV Mean” value [2, 5] was 3.1. The “RTV Median” value [2, 5] was 3, the T/C [2, 5] was 68.5% and the “Tumor Vol. Mean” value [2, 5] was 0.384 cm^3. For the same substance, the “Tumor Vol. Median” value [2, 5] was 0.337 cm^3, the “RTV Mean” value [2, 6] was 8.5 and the “RTV Median” value [2, 6] was 8. For the same substance, the T/C [2, 6] was 73.9%, the “Tumor Vol. Mean” value [2, 6] was 0.985 cm^3 and the “Tumor Vol. Median” value [2, 6] was 1.015 cm^3. The “RTV Mean” value [2, 7] was 13.4, the “RTV Median” value [2, 7] was 11.9 and the T/C [2, 7] was 79.3%. For the same substance, the “Tumor Vol. Mean” value [2, 7] was 1.547 cm^3, the “Tumor Vol. Median” value [2, 7] was 1.398 cm^3 and the “RTV Mean” value [2, 8] was 1. For the same substance, the “RTV Median” value [2, 8] was 1, the T/C [2, 8] was 97% and the “Tumor Vol. Mean” value [2, 8] was 0.116 cm^3. The “Tumor Vol. Median” value [2, 8] was 0.115 cm^3, the “RTV Mean” value [2, 9] was 1.6 and the “RTV Median” value [2, 9] was 1.6. The T/C [2, 9] was 51.1%, the “Tumor Vol. Mean” value [2, 9] was 0.176 cm^3 and the “Tumor Vol. Median” value [2, 9] was 0.182 cm^3. For the same substance, the “RTV Mean” value [2, 10] was 2.6, the “RTV Median” value [2, 10] was 2.7 and the T/C [2, 10] was 54.9%. The “Tumor Vol. Mean” value [2, 10] was 0.308 cm^3, the “Tumor Vol. Median” value [2, 10] was 0.33 cm^3 and the “RTV Mean” value [2, 11] was 8.4. The “RTV Median” value [2, 11] was 8.4, the T/C [2, 11] was 72.2% and the “Tumor Vol. Mean” value [2, 11] was 0.962 cm^3. The “Tumor Vol. Median” value [2, 11] was 0.995 cm^3, the “RTV Mean” value [2, 12] was 12.6 and the “RTV Median” value [2, 12] was 13. The T/C [2, 12] was 73.9%, the “Tumor Vol. Mean” value [2, 12] was 1.442 cm^3 and the “Tumor Vol. Median” value [2, 12] was 1.503 cm^3.

Reference: patent US20220257698A1, “ANGIOTENSIN TYPE 2 (AT2) RECEPTOR AGONISTS FOR USE IN THE TREATMENT OF CANCER” (LANTHIOPEP B.V., priority 2019, published 2022)
